This is an account of results in PubChem BioAssay AID200 (DTP/NCI, 2004).

Several values for one entry are separate records, joined by “and”; a condition that tells them apart may be missing. Identical values can stand only once. Toxic doses and inconclusive results are not listed. Where a SMILES comes first, the peptide text is derived from it.

For this assay, the system named is B6C3F1 mice, B16 melanoma ip, median survival T/C. Kind of assay: NCI In Vivo Anticancer Drug Screen. Data for tumor model B16 Melanoma (intraperitoneal) in B6C3F1 mice. The conditions noted are these: endpoint: median survival time, higher = longer survival. The gist of the method: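 Values are T/C ratios: the measurement in treated animals divided by that in vehicle-treated controls, using survival or tumor size in mice carrying transplantable tumors.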

Where [1] appears, read: dose: 1.25 mg/kg/injection, schedule: Q01DX009 (ip), vehicle: Klucel (hydroxypropylcellulose) (HPC).
Setting [2] is: dose: 2.5 mg/kg/injection, schedule: Q01DX009 (ip), vehicle: Klucel (hydroxypropylcellulose) (HPC).
Setting [3] is: dose: 10.0 mg/kg/injection, schedule: Q01DX009 (ip), vehicle: Klucel (hydroxypropylcellulose) (HPC).
[4] abbreviates: dose: 100.0 mg/kg/injection, schedule: Q01DX009 (ip), vehicle: saline.
Where [5] appears, read: dose: 1.56 mg/kg/injection, schedule: Q01DX009 (ip), vehicle: saline with Tween-80.
Setting [6] is: dose: 6.25 mg/kg/injection, schedule: Q01DX009 (ip), vehicle: saline with Tween-80.
The mark [7] stands for this setting: dose: 12.5 mg/kg/injection, schedule: Q01DX009 (ip), vehicle: saline with Tween-80.
Where [8] appears, read: dose: 25.0 mg/kg/injection, schedule: Q01DX009 (ip), vehicle: saline with Tween-80.
[9] abbreviates: dose: 50.0 mg/kg/injection, schedule: Q01DX009 (ip), vehicle: saline with Tween-80.
Where [10] appears, read: dose: 100.0 mg/kg/injection, schedule: Q01DX009 (ip), vehicle: saline with Tween-80.
Where [11] appears, read: dose: 200.0 mg/kg/injection, schedule: Q01DX009 (ip), vehicle: saline with Tween-80.

Consider `OC1CC2CCCCC2CC1c1ccccc1` (stereo unspecified), for which the T/C runs as follows: (dose: 25.0 mg/kg/injection, schedule: Q04DX003 (ip), vehicle: saline with Tween-80) 95 % of control; (dose: 50.0 mg/kg/injection, schedule: Q04DX003 (ip), vehicle: saline with Tween-80) 114 % of control; (dose: 100.0 mg/kg/injection, schedule: Q04DX003 (ip), vehicle: saline with Tween-80) 104 % of control; (dose: 200.0 mg/kg/injection, schedule: Q04DX003 (ip), vehicle: saline with Tween-80) 93 % of control; (dose: 400.0 mg/kg/injection, schedule: Q04DX003 (ip), vehicle: saline with Tween-80) 92 % of control.

Take `CSCCC(NC(=O)CNC(=O)CNC(=O)OCc1ccccc1)C(=O)O` (stereo unspecified) (HELM PEPTIDE1{[O=C(OCc1ccccc1)[*:2]].G.G.[CSCCC(N[*:1])C(=O)O]}$$$$V2.0): the T/C runs as follows: (dose: 100.0 mg/kg/injection, schedule: Q01DX009 (ip), vehicle: Klucel (hydroxypropylcellulose) (HPC)) 100 % of control; (dose: 200.0 mg/kg/injection, schedule: Q01DX009 (ip), vehicle: Klucel (hydroxypropylcellulose) (HPC)) 103 % of control; (dose: 400.0 mg/kg/injection, schedule: Q01DX009 (ip), vehicle: Klucel (hydroxypropylcellulose) (HPC)) 108 % of control.

In the case of `COc1cc2cc3c(c(O)c2c(O)c1/C=C/C(C)C)C(=O)CC(C)(OC(C)=O)C3` (stereo unspecified), the T/C reads like this: (dose: 0.62 mg/kg/injection, schedule: Q01DX009 (ip), vehicle: Klucel (hydroxypropylcellulose) (HPC)) 98 % of control; (dose: 0.63 mg/kg/injection, schedule: Q01DX009 (ip), vehicle: Klucel (hydroxypropylcellulose) (HPC)) 104 % of control; under setting [1], 109 % of control and 112 % of control; under setting [2], 115 % of control and 122 % of control; under setting [3], 100 % of control.

For `O=NNc1ncc(Br)cc1Br`, the T/C (dose: 6.25 mg/kg/injection, schedule: Q01DX009 (ip), vehicle: water) is 108 % of control; the T/C (dose: 12.5 mg/kg/injection, schedule: Q01DX009 (ip), vehicle: water) was 114 % of control; the T/C (dose: 25.0 mg/kg/injection, schedule: Q01DX009 (ip), vehicle: water) is 110 % of control; the T/C (dose: 100.0 mg/kg/injection, schedule: Q01DX009 (ip), vehicle: water) was 98 % of control.

In the case of `COc1ccc(CC(N)c2ccccc2)cc1` (stereo unspecified), the T/C (dose: 50.0 mg/kg/injection, schedule: Q01DX009 (ip), vehicle: saline) is 99 % of control and the T/C under setting [4] is 96 % of control.

`COC(OC(CO)C(O)S(=O)(=O)O)C(O)S(=O)(=O)O` (stereo unspecified): the T/C runs as follows: (dose: 12.5 mg/kg/injection, schedule: Q01DX009 (ip), vehicle: saline) 108 % of control; (dose: 25.0 mg/kg/injection, schedule: Q01DX009 (ip), vehicle: saline) 115 % of control; under setting [4], 155 % of control.

On to `Nc1ncnc2c1ncn2C1OC(COP(=O)(O)O)C(O)C1O` (stereo unspecified), for which the T/C is 86 % of control (dose: 40.0 mg/kg/injection, schedule: Q01DX009 (ip), vehicle: water); 88 % of control (dose: 80.0 mg/kg/injection, schedule: Q01DX009 (ip), vehicle: water); 109 % of control under setting [4]; 94 % of control (dose: 160.0 mg/kg/injection, schedule: Q01DX009 (ip), vehicle: water); 109 % of control (dose: 200.0 mg/kg/injection, schedule: Q01DX009 (ip), vehicle: saline); 97 % of control (dose: 320.0 mg/kg/injection, schedule: Q01DX009 (ip), vehicle: water). Moreover, the T/C (dose: 400.0 mg/kg/injection, schedule: Q01DX009 (ip), vehicle: saline) is 115 % of control.

On to `NC(N)=NC(N)=Nc1ccc(-c2ccc(N=C(N)N=C(N)N)cc2)cc1`, for which the T/C runs as follows: (dose: 0.78 mg/kg/injection, schedule: Q01DX009 (ip), vehicle: saline with Tween-80) 98 % of control; under setting [5], 107 % of control; (dose: 3.13 mg/kg/injection, schedule: Q01DX009 (ip), vehicle: saline with Tween-80) 90 % of control; under setting [6], 106 % of control; under setting [7], 93 % of control.

As for `CC1OC2CC(O)C1(O)C1=C2C(O)=C(C(N)=O)C(=N)C1=O` (stereo unspecified), the T/C is 106 % of control (dose: 0.31 mg/kg/injection, schedule: Q01DX009 (ip), vehicle: saline); 98 % of control (dose: 0.62 mg/kg/injection, schedule: Q01DX009 (ip), vehicle: saline); 104 % of control (dose: 1.25 mg/kg/injection, schedule: Q01DX009 (ip), vehicle: saline); 98 % of control (dose: 2.5 mg/kg/injection, schedule: Q01DX009 (ip), vehicle: saline); 102 % of control (dose: 5.0 mg/kg/injection, schedule: Q01DX009 (ip), vehicle: saline).

Regarding `Cc1c2ccccc2c(C)c2c1ccc1ccccc12`, the T/C runs as follows: (dose: 1.0 mg/kg/injection, schedule: Q01DX009 (ip), vehicle: saline with Tween-80) 99 % of control; (dose: 2.0 mg/kg/injection, schedule: Q01DX009 (ip), vehicle: saline with Tween-80) 106 % of control; (dose: 4.0 mg/kg/injection, schedule: Q01DX009 (ip), vehicle: saline with Tween-80) 122 % of control; (dose: 8.0 mg/kg/injection, schedule: Q01DX009 (ip), vehicle: saline with Tween-80) 113 % of control; (dose: 16.0 mg/kg/injection, schedule: Q01DX009 (ip), vehicle: saline with Tween-80) 86 % of control.

In the case of `CCOC(=O)[C@]1(Br)CC[C@@]1(Br)C(=O)OCC`, the T/C is 108 % of control and 104 % of control under setting [7]; 110 % of control and 105 % of control under setting [8]; 98 % of control and 106 % of control under setting [9]; 100 % of control and 107 % of control under setting [10]; 110 % of control and 105 % of control under setting [11].

With `CC12CC3OC(=O)C1COC14OC5(C2C1=O)C(O)(CCC1C4CC2OC24CC=CC(=O)C14C)C(=O)OC35C` (stereo unspecified), the T/C by setting is: (dose: 7.5 mg/kg/injection, schedule: Q01DX009 (ip), vehicle: Klucel (hydroxypropylcellulose) (HPC)) 88 % of control; (dose: 15.0 mg/kg/injection, schedule: Q01DX009 (ip), vehicle: Klucel (hydroxypropylcellulose) (HPC)) 93 % of control; (dose: 30.0 mg/kg/injection, schedule: Q01DX009 (ip), vehicle: Klucel (hydroxypropylcellulose) (HPC)) 99 % of control.

For `CCCCCCCC1C(=O)OC2CC3C(C)=CC(=O)C(O)C3(C)C3C4(O)OCC23C1C(C)C4O` (stereo unspecified), the T/C is, setting by setting: under setting [1], 156 % of control; under setting [2], 110 % of control and 91 % of control; (dose: 5.0 mg/kg/injection, schedule: Q01DX009 (ip), vehicle: Klucel (hydroxypropylcellulose) (HPC)) 118 % of control and 97 % of control; under setting [3], 114 % of control and 250 % of control; (dose: 20.0 mg/kg/injection, schedule: Q01DX009 (ip), vehicle: Klucel (hydroxypropylcellulose) (HPC)) 162 % of control.

As for `O=C(O)CC(=O)O.[NH-]CC[NH-].[Pt+2]`, the T/C (dose: 12.5 mg/kg/injection, schedule: Q01DX009 (ip), vehicle: dextrose) is 175 % of control and the T/C (dose: 25.0 mg/kg/injection, schedule: Q01DX009 (ip), vehicle: dextrose) was 86 % of control.

Take `O=S(=O)(CCl)OCCCl`: the T/C is 97 % of control and 100 % of control under setting [6]; 108 % of control and 113 % of control and 103 % of control under setting [7]; 114 % of control and 115 % of control and 102 % of control under setting [8]; 109 % of control and 100 % of control under setting [9]; 110 % of control under setting [10].

For the compound `C=CCNc1nc2c(s1)CCc1cc(OC)c(OC)cc1-2`, the T/C is 103 % of control under setting [7]; 116 % of control under setting [8]; 107 % of control under setting [9]; 100 % of control under setting [10]; 103 % of control under setting [11]; 103 % of control (dose: 400.0 mg/kg/injection, schedule: Q01DX009 (ip), vehicle: saline with Tween-80).

`C[CH2][Sn]([CH2]C)([CH2]C(=O)OC)[CH2]C(=O)OC`: the T/C was 95 % of control under setting [5]; 107 % of control (dose: 3.12 mg/kg/injection, schedule: Q01DX009 (ip), vehicle: saline with Tween-80); 90 % of control under setting [6].

As to `C=C1N(C)c2ccccc2C1(C)C`, the T/C was 110 % of control under setting [6] and 108 % of control under setting [7].

For the compound `CC[C@@]1(O)C[C@H](OC2CC(N(C)C)C(OC3CC(O)C(OC4CCC(=O)C(C)O4)C(C)O3)C(C)O2)c2c(cc3c(c2O)C(=O)c2c(O)cccc2C3=O)[C@H]1C(=O)OC` (stereo partly specified), the T/C (dose: 3.0 mg/kg/injection, schedule: Q01DX009 (ip), vehicle: saline with Tween-80) is 151 % of control.
